Data on 1 compound can be found in patent publication US10370380B2, “Octahydropyrrolo[3,4-c]pyrrole derivatives and uses thereof” (Sunshine Lake Pharma Co., Ltd., priority 2015, dated 2019).

SMILES strings stand for the structures.

The target in series [1] is T1, humanized OX1 receptor (Homo sapiens, UniProt O43613).
T1 construct: expressed in transfected cells; host or cells: CHO (Chinese hamster ovary) cells
T1 sequence (O43613 1-425): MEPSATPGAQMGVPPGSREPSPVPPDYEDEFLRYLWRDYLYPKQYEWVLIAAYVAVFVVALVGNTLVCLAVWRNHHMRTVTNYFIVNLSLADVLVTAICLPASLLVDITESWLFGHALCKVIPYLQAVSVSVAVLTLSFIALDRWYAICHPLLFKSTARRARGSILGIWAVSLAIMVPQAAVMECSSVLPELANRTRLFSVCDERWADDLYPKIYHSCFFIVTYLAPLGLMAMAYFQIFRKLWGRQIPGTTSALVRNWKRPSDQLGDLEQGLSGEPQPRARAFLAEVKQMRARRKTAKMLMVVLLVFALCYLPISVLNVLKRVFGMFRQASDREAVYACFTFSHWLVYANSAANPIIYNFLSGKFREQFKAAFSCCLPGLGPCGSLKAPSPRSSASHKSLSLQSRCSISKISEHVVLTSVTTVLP
Nature of the series: Antagonistic effect on humanized OX1 receptor, calcium flux by fluorescence detection in CHO cells. It is filed as cell-based. The procedure:
The capability of the compounds provided herein to antagonize humanized OX1 receptor expressed in Chinese hamster ovary (CHO) cells was evaluated by the influence of the compounds disclosed herein on calcium flux in cells induced by agonist detected by a method of fluorescence detection. The cells were suspended in DMEM culture medium (invitrogen), and then added to a microplate with an average density of 2×10^4 cells/well. The Hank's balanced salt solution (pH 7.4) containing fluorescent probes (Fluo4 NW, Invitrogen), probenecid (invitrogen), 20 mM hydroxyethyl piperazine acetic sulfuric acid (invitrogen) was added to the above microplate, and then incubated together with the cells at 37° C. for 60 min, further incubated at 22° C. for 15 min. The microplate was placed in a microplate reader (CellLux, PerkinElmer), and to which was added the test compound or reference antagonist or Hank's balanced salt solution, 5 min later, 3 nM of orexin A or Hank's balanced salt solution (as a blank contrast) was added. […] The experimental results were expressed as an inhibition percentage relative to a control group (the group with 3 nM of orexin A).
The standard reference antagonist is SB334867, and IC50 values were calculated by the dose-effect curve obtained from a series of concentrations of the experimental test.

Series [2] in a line: Pharmacokinetic evaluation after intravenous or gavage administration to rats. Conditions: SD, rat, in vivo. It counts as in vivo, SD rats. The procedure:
The compounds disclosed herein were administered in form of a saline solution containing 5% DMSO, 5% Kolliphor HS 15, 2% (2% HCl) and 88% Saline, or a solution containing 10% DMSO, 10% Kolliphor HS 15 and 80% physiological saline to the subject animals. For intravenous administration, the animals were administered with a dose of 1 mg/kg or 2 mg/kg, and vein blood samples (0.3 mL) were collected at the time points of 0.083, 0.25, 0.5, 1.0, 2.0, 4.0, 6.0, 8.0 and 24 h after drug administration; plasma samples were collected by centrifugation of the vein blood samples at 3000 rpm or 4000 rpm for 10 minutes, and stored at −20° C. or −70° C. For gavage administration, the animals were administered with a dose of 2.5 mg/kg or 5 mg/kg, and vein blood samples (0.3 mL) were collected at the time points of 0.25, 0.5, 1.0, 2.0, 4.0, 6.0, 8.0 and 24 h after drug administration; plasma samples were collected by centrifugation at 3000 rpm or 4000 rpm for 10 minutes, and stored at −20° C. or −70° C. The positive control is suvorexant.
The above plasma samples were analyzed by the LC-MS/MS system.

Series [3] in a line: Stability in human liver microsome. It is filed as in vitro ADME. The settings on record: human, microsomes, pH 4. The procedure:
A mixture of the compound of the invention and human liver microsome in 0.1 M potassium phosphate buffer (containing 1.0 mM EDTA, pH=4) was incubated at 37° C., the sample concentrations at different incubation times were measured, and then the half life of the compound was calculated by plotting “the relative amount of the compound” against “incubation time” by using software GraphPad Prism 5.01, and intrinsic clearance was calculated. The experiment system shown as table 5:
The sample was analyzed by LC/MS/MS (ESI […] source and waters xbridge C18 EB-A-1420 chromatographic column were adopted), the mobile phases were an aqueous solution with 2 mM ammonium formate and 0.1% formic acid (mobile phase A) and an methanol solution with 2 mM ammonium formate and 0.1% formic acid (mobile phase B), the flow rate was 0.4 mL/min; the column temperature was 40° C. The ratio of the sample peak area to the internal standard peak area was obtained through LC/MS/MS analysis, the content of the compound at 0 time point was as 100%, the relative content of the compound at each time point was calculated. The half life of the compound was calculated by plotting “the relative amount of the compound” against “incubation time”, and intrinsic clearance was calculated.
The positive control is suvorexant.

Take `Cc1ccc(-n2nccn2)c(C(=O)N2CC3CN(c4nc5cc(Cl)ccc5o4)CC3C2)c1` (stereo not shown) [Example 1, (5-(5-chlorobenzo[d]oxazol-2-yl)hexahydropyrrolo[3,4-c]pyrrol-2(1H)-yl)(5-methyl-2-(2H-1,2,3-triazol-2-yl)phenyl)methanone]: the IC50 in series [1] was 604 nM. In series [2] (iv, 1 mg/kg), the total exposure AUC(0-inf) is 417 ng·h/mL, the AUC(0-t) came to 415 ng·h/mL, the highest level (Cmax) was 646 ng/mL and the mean residence time MRT inf is 38.3 min. Also, in series [2] (iv, 1 mg/kg), the Vd is 1.53 L/kg, the clearance stood at 40 mL/min/kg and the half-life was 40.6 min. In series [2] (po, 2.5 mg/kg), this compound displayed an AUC(0-inf) of 659 ng·h/mL, an area under the curve AUC(0-t) of 482 ng·h/mL, a Cmax of 181 ng/mL and an F of 50.1%. In series [2] (po, 2.5 mg/kg), this compound showed an MRT inf of 182 min and a half-life of 133 min. Also, in series [3], the intrinsic metabolic clearance (CLint scaled) at 1 μM was 35.1 mL/min/kg and the half-life at 1 μM was 49.5 min.
